From patent US8445224B2, “Method for assaying FTO (2-oxoglutarate dependent oxygenase) activity” (Isis Innovation Limited, priority 2007, dated 2013) come the findings set out here.

Each structure is given as a SMILES string.

The target of the assay is T1, FTO (Mus musculus, UniProt Q8BGW1).
T1 construct: His tag (pET-28a) with peptide linker (N); made in house; host or cells: E. coli BL21-Gold(DE3)
The assay is described as follows: 2-oxoglutarate decarboxylation (uncoupled 2-OG turnover) assay with purified FTO. It counts as biochemical. As for the experimental part:
FTO was incubated with all necessary cofactors, in various buffers lacking a specific reagent (Fe^2+, ascorbate or DTT) and in the presence of N-oxalyl-glycine (NOG), a generic Fe^2+-2OG-dioxygenase inhibitor at a concentration of 0.5 mM. In addition to Fe^2+ (added in the form of (NH4)2Fe(II)(SO4)2) and 2OG, dithiothreitol (DTT) and sodium ascorbate were added to the reaction mixture: DTT is a reducing agent that helps to maintain Fe^2+.
These were diluted to a total volume of 100 μl with 50 mM TRIS, pH 7.5. All reagents were mixed and pipetted into a 5 ml plastic screw cap tube, the FTO was added to the tube as a separate drop. A 500 μl Eppendorf tube containing 200 μl Hyamine hydroxide (Fisher Scientific, CO2 trapping agent) was added to each tube and tubes were closed with a rubber septum. After incubation in an environmental shaker at 37° C. for half an hour, 200 μl methanol was added to the contents and the tubes were put on ice for 30 minutes to quench the reaction. The Eppendorf tubes containing the hyamine hydroxide were transferred to scintillation vials, mixed with 5 ml OptiPhase Liquid Scintillation Cocktail (Fisher Scientific) and total ^14C counts quantified using a Beckman L56500 Multi-Purpose Scintillation Counter.

T1 sequence (Q8BGW1 whole entry): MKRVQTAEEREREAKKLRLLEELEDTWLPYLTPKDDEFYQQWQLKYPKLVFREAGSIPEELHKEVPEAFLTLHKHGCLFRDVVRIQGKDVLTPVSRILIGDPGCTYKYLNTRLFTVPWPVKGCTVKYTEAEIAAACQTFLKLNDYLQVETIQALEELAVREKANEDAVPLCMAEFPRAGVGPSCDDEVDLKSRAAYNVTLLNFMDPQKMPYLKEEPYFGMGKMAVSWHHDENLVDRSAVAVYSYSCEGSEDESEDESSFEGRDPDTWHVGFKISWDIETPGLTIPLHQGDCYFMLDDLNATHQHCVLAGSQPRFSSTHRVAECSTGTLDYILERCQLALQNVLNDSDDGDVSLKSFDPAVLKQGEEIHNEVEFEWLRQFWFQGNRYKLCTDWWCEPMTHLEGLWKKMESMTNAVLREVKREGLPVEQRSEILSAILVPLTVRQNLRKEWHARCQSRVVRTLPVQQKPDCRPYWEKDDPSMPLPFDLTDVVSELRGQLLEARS

`O=S(=O)([O-])[O-].[Fe+2]` [FeSO4]: the “Stimulation of FTO 2-OG turnover activity” value (uncoupled turnover) is “stimulated”.

As for `O=C(O)C(=O)N[C@H](Cc1ccccc1)C(=O)O` [NOFD, N-oxalyl D-phenylalanine], the “Inhibition of FTO 2-OG turnover (uncoupled)” value (no methylated DNA substrate) was “did not inhibit”.
